In patent publication US10626126B2, “Compounds” (Pulmocide Limited, priority 2016, dated 2020) one finds IC50, inhibition and CC50 data, which are given here for eleven compounds.

Molecules are shown by their SMILES. pIC50: −log10 of the molar value.

What all share (type): cell-based
One data set relates to RSV A2 strain. In words: RSV A2 induced CPE in HEp2 cells. As to conditions: human respiratory syncytial virus; for pIC50: HEp-2, 120 h, 5 days; for inhibition at 0.01 µg/mL: HEp-2, at 0.01 μg/mL. On the procedure:
(§1) HEp2 cells were seeded (10^3/well/50 μL) in 384-well plates (Catalogue number 353962, BD Falcon, Oxford, UK) in 5% FBS-DMEM (containing 2 mM L-glutamine and 1 mM sodium pyruvate) one day before infection. […] Simultaneously, test compounds (0.5 μL DMSO solution) were added to 100 μL of HEp2 cell culture with virus solution to provide a final DMSO solution of 0.5%. […] Sigma-Aldrich, Dorset, UK) was added to each well and the plate incubated for a further 6 hr (37° C./5% CO2). The fluorescence of each well [545 nm (excitation)/590 nm (emission)] was determined using a multi-scanner (Clariostar: BMG, Buckinghamshire, UK). The percentage inhibition for each well was calculated and the IC50, IC75 and IC90 values were calculated from the concentration-response curve generated for each test compound.

Data set [1] can be described thus: Cell viability: resazurin assay. As to conditions: human, HEp2 cells. On the procedure:
HEp2 cells were seeded in 384-well plates (10^3/well/50 μL; BD Falcon Ref 353962) in FBS DMEM (5%, containing 2 mM L-glutamine and 1 mM sodium pyruvate) one day before experimentation. Serum-free DMEM (50 μL) was added to test wells, while for control wells the media was removed and sterile water (100 μL) added. Test compounds (0.5 μL DMSO solution) were added to give a final DMSO concentration of 0.5%. HEp2 cells were incubated with each test compound for 5 days (37° C./5% CO2 in 2.5% FBS) and then resazurin stock solution (5 μL; 0.03%) was added to each well and the plate incubated for a further 6 hr (37° C./5% CO2). The fluorescence of each well at 545 nm (excitation) and 590 nm (emission) was determined using a multi-scanner (Clariostar: BMG Labtech). The percentage loss of cell viability was calculated for each well relative to vehicle (0.5% DMSO) treatment. Note that any apparent increase in cell viability associated with test compound treatment relative to vehicle is consequently tabulated as a negative percentage. Where appropriate, a CC50 value was calculated from the concentration-response curve generated from the concentration-response curve for each test compound.
On the technique in general: Alamar Blue is a resazurin reagent that responds to reducing activity.

The next data set deals with RSV B Washington strain. In words: RSV B induced CPE in HEp2 cells. The following applies: human respiratory syncytial virus; for pIC50: HEp-2, 144 h, 6 days; for inhibition at 0.1 µg/mL: HEp-2, at 0.1 μg/mL; for inhibition at 1 µg/mL: HEp-2, at 1 μg/mL. As to the method: as §1

For orientation: pIC50 means −log10 of the IC50, conventionally taken in molar units. The low end stands for a high IC50, the high end for a low IC50. For orientation: inhibition means the share of the control response that was lost under treatment. Low readings indicate a weak effect, high ones a strong effect. As usually defined, the CC50 is the concentration at which the toxic effect on the cells reaches its halfway point. Higher therefore signals better tolerance by the cells. For the compound `Cc1cccc(F)c1NC(=O)c1cc2c(s1)-c1sccc1N(C(=O)c1ccc(NC(=O)c3cc4c(nc3N3CC5(CCOCC5)C3)CCC4)cc1)CC2` [Example 24, 4-(4-(2-(7-oxa-2-azaspiro[3.5]nonan-2-yl)-6,7-dihydro-5H-cyclopenta[b]pyridine-3-carboxamido)benzoyl)-N-(2-fluoro-6-methylphenyl)-5,6-dihydro-4H-dithieno[3,2-b:2′,3′-d] azepine-8-carboxamide], in the data set with RSV A2 strain, the pIC50 was 9.27 and testing at 0.01 µg/mL gave an inhibition of 98%. This compound registered a CC50 at 5 days in data set [1] of over 13400 nM. In the data set with RSV B Washington strain, this compound showed a pIC50 of 7.96 and an inhibition at 0.1 µg/mL of 84%.

Take `O=C(Nc1c(F)cccc1F)c1cc2c(s1)-c1sccc1N(C(=O)c1ccc(NC(=O)c3cc4c(nc3N3CC5(CCOCC5)C3)CCOC4)cc1)CC2` [Example 25, N-(4-(8-((2,6-difluorophenyl)carbamoyl)-5,6-dihydro-4H-dithieno[3,2-b:2′,3′-d]azepine-4-carbonyl)phenyl)-2-(7-oxa-2-azaspiro[3.5]nonan-2-yl)-7,8-dihydro-5H-pyrano[4,3-b]pyridine-3-carboxamide]: in the data set with RSV A2 strain, the negative-log IC50 (pIC50) is 9.74 and testing at 0.01 µg/mL gave an inhibition of 100%. For the same compound, the half-maximal cytotoxic concentration (CC50) at 5 days in data set [1] was over 13000 nM. Moreover, in the data set on RSV B Washington strain, the pIC50 is 8.00 and the inhibition at 0.1 µg/mL came out at 89%.

Turning to `Cc1cccc(F)c1NC(=O)c1cc2c(s1)-c1sccc1N(C(=O)c1ccc(NC(=O)c3cc4c(nc3N3CC5(CCOCC5)C3)CCOC4)cc1)CC2` [Example 26, N-(4-(8-((2-fluoro-6-methylphenyl)carbamoyl)-5,6-dihydro-4H-dithieno[3,2-b:2′,3′-d]azepine-4-carbonyl)phenyl)-2-(7-oxa-2-azaspiro[3.5]nonan-2-yl)-7,8-dihydro-5H-pyrano[4,3-b]pyridine-3-carboxamide], in the data set with RSV A2 strain, the pIC50 was 9.00 and at 0.01 µg/mL the inhibition was 98%. The half-maximal cytotoxic concentration (CC50) at 5 days in data set [1] is over 13100 nM. In the data set on RSV B Washington strain, this compound had a pIC50 of 7.77 and an inhibition at 0.1 µg/mL of 93%.

In the data set with RSV A2 strain, `O=C(Nc1c(F)cccc1F)c1cc2c(s1)-c1sccc1N(C(=O)c1ccc(NC(=O)c3cc4ccccc4nc3N3CC4(CCOCC4)C3)cc1)CC2` [Example 27, 4-(4-(2-(7-oxa-2-azaspiro[3.5]nonan-2-yl)quinoline-3-carboxamido)benzoyl)-N-(2,6-difluorophenyl)-5,6-dihydro-4H-dithieno[3,2-b:2′,3′-d]azepine-8-carboxamide] gave a negative logarithm of the IC50 (pIC50) of 9.20 and an inhibition at 0.01 µg/mL of 94%. Further, the cytotoxic concentration (CC50) at 5 days in data set [1] is over 13100 nM. Moreover, in the data set with RSV B Washington strain, the negative logarithm of the IC50 (pIC50) is 7.49 and the inhibition at 1 µg/mL is 93%.

In the case of `O=C(Nc1c(F)cccc1F)c1cc2c(s1)-c1sccc1N(C(=O)c1ccc(NC(=O)c3cc4sccc4nc3N3CC4(CCOCC4)C3)cc1F)CC2` [Example 28, 4-(4-(5-(7-oxa-2-azaspiro[3.5]nonan-2-yl)thieno[3,2-b]pyridine-6-carboxamido)-2-fluorobenzoyl)-N-(2,6-difluorophenyl)-5,6-dihydro-4H-dithieno[3,2-b:2′,3′-d] azepine-8-carboxamide], in the data set with RSV A2 strain, the pIC50 was 9.32 and 0.01 µg/mL produced 89% inhibition. In data set [1], this compound yielded a 50% cytotoxic concentration (CC50) at 5 days of over 12700 nM. In the data set on RSV B Washington strain, the pIC50 is 7.82 and the inhibition at 0.1 µg/mL came to 92%.

Take `O=C(Nc1c(F)cccc1F)c1cc2c(s1)-c1sccc1N(C(=O)c1ccc(NC(=O)c3cccnc3N3CCC4(CC3)COC4)cc1)CC2` [Example 29, 4-(4-(2-(2-oxa-7-azaspiro[3.5]nonan-7-yl)nicotinamido)benzoyl)-N-(2,6-difluorophenyl)-5,6-dihydro-4H-dithieno [3,2-b:2′,3′-d]azepine-8-carboxamide]: in the data set on RSV A2 strain, the negative-log IC50 (pIC50) is 8.44 and the inhibition at 0.01 µg/mL was 100%. In addition, in data set [1], the CC50 at 5 days is over 14000 nM. In the data set on RSV B Washington strain, this compound showed a negative logarithm of the IC50 (pIC50) of 6.31 and an inhibition at 1 µg/mL of 51%.

In the data set with RSV A2 strain, `Cc1cnc(N2CCC3(CC2)COC3)c(C(=O)Nc2ccc(C(=O)N3CCc4cc(C(=O)Nc5c(F)cccc5F)sc4-c4sccc43)cc2)c1` [Example 30, N-(2,6-difluorophenyl)-4-(4-(5-methyl-2-(2-oxa-7-azaspiro[3.5]nonan-7-yl)nicotinamido)benzoyl)-5,6-dihydro-4H-dithieno[3,2-b:2′,3′-d]azepine-8-carboxamide] showed a pIC50 of 9.38 and an inhibition at 0.01 µg/mL of 100%. The CC50 at 5 days in data set [1] is over 13800 nM. In the data set on RSV B Washington strain, this compound showed a pIC50 of 6.89 and an inhibition at 1 µg/mL of 100%.

Take `O=C(Nc1c(F)cccc1F)c1cc2c(s1)-c1sccc1N(C(=O)c1ccc(NC(=O)c3cccnc3N3CC4(COC4)C3)cc1)CC2` [Example 31, 4-(4-(2-(2-oxa-6-azaspiro[3.3]heptan-6-yl)nicotin-amido)benzoyl)-N-(2,6-difluorophenyl)-5,6-dihydro-4H-dithieno[3,2-b:2′,3′-d]azepine-8-carboxamide]: in the data set on RSV A2 strain, the negative-log IC50 (pIC50) was 7.97 and the inhibition at 0.01 µg/mL turned out to be 62%. Also, the cytotoxic concentration (CC50) at 5 days in data set [1] is over 14600 nM. In the data set on RSV B Washington strain, this compound showed a negative logarithm of the IC50 (pIC50) of 5.98 and an inhibition at 1 µg/mL of 57%.

Consider `Cc1cnc(N2CC3(COC3)C2)c(C(=O)Nc2ccc(C(=O)N3CCc4cc(C(=O)Nc5c(F)cccc5F)sc4-c4sccc43)cc2)c1` [Example 32, N-(2,6-difluorophenyl)-4-(4-(5-methyl-2-(2-oxa-6-azaspiro[3.3]heptan-6-yl)nicotinamido)benzoyl)-5,6-dihydro-4H-dithieno[3,2-b:2′,3′-d]azepine-8-carboxamide], for which, in the data set on RSV A2 strain, the negative logarithm of the IC50 (pIC50) is 9.23 and the inhibition at 0.01 µg/mL was determined as 100%. Besides, the half-maximal cytotoxic concentration (CC50) at 5 days in data set [1] is over 14300 nM. Moreover, in the data set with RSV B Washington strain, the pIC50 is 6.22 and the inhibition at 1 µg/mL was determined as 90%.

In the data set on RSV A2 strain, `O=C(Nc1c(F)cccc1F)c1cc2c(s1)-c1sccc1N(C(=O)c1ccc(NC(=O)c3cccnc3N3CCC4(CCOCC4)CC3)cc1)CC2` [Example 33, 4-(4-(2-(3-oxa-9-azaspiro[5.5]undecan-9-yl)nicotin amido)benzoyl)-N-(2,6-difluorophenyl)-5,6-dihydro-4H-dithieno[3,2-b:2′,3′-d]azepine-8-carboxamide] had a pIC50 of 8.85 and an inhibition at 0.01 µg/mL of 100%. Further, the cytotoxic concentration (CC50) at 5 days in data set [1] was over 13500 nM. Moreover, in the data set on RSV B Washington strain, the negative-log IC50 (pIC50) was under 5.87 and the inhibition at 1 µg/mL came to 23%.

In the data set on RSV A2 strain, `Cc1cnc(N2CCC3(CCOCC3)CC2)c(C(=O)Nc2ccc(C(=O)N3CCc4cc(C(=O)Nc5c(F)cccc5F)sc4-c4sccc43)cc2)c1` [Example 34, N-(2,6-difluorophenyl)-4-(4-(5-methyl-2-(3-oxa-9-azaspiro[5.5]undecan-9-yl)nicotinamido)benzoyl)-5,6-dihydro-4H-dithieno[3,2-b:2′,3′-d]azepine-8-carboxamide] showed a negative-log IC50 (pIC50) of 8.36 and an inhibition at 0.01 µg/mL of 100%. In data set [1], this compound displayed a 50% cytotoxic concentration (CC50) at 5 days of over 13300 nM. Besides, in the data set on RSV B Washington strain, the pIC50 was under 5.88 and testing at 1 µg/mL gave an inhibition of 9%.
